Laboratory results as given in patent EP0745599A2, “1-(3-Heterocyclylphenyl)-s-triazine-2,4,6-oxo or thiotrione herbicidal agents” (American Cyanamid Company, priority 1995, dated 1996).

Experiments:
Type in all cases: in vivo
Conditions in all cases: rated four to five weeks after treatment
[1] = tested on: AMBROSIA ARTEMISIIFOLIA, L.; experiment: Preemergence herbicidal evaluation, AMBEL (Ragweed, Common); parameters: key to AMBEL: visual rating scale 0-9 vs control
Text: (§1) Results of herbicide evaluation are expressed on a rating scale (0-9). The scale is based upon a visual observation of plant stand, vigor, malformation, size, chlorosis and overall plant appearance as compared with a control.
(§2) The preemergence herbicidal activity of the test compounds of the present invention is exemplified by the following tests in which the seeds of a variety of monocotyledonous and dicotyledonous plants are separately mixed with potting soil and planted on top of approximately one inch of soil in separate pint cups. After planting, the cups are sprayed with the selected aqueous acetone solution containing test compound in sufficient quantity to provide the equivalent of about 0.125 to 0.50 kg per hectare of test compound per cup. The treated cups are then placed on greenhouse benches, watered and cared for in accordance with conventional greenhouse procedures. From four to five weeks after treatment, the tests are terminated and each cup is examined and rated according to the rating system provided in Example 42.

CASSIA OBTUSIFOLIA, L. [2] = experiment: Postemergence herbicidal evaluation, CASOB (Sicklepod)
Method: (§3) In the tests, seedling plants are grown in jiffy flats for about two weeks. The test compounds are dispersed in 50/50 acetone/water mixtures containing 0.5% TWEEN®20, a polyoxyethylene sorbitan monolaurate surfactant of Atlas Chemical Industries, in sufficient quantities to provide the equivalent of about 0.125 kg to 0.500 kg per hectare of active compound when applied to the plants through a spray nozzle operating at 40 psi for a predetermined time. After spraying, the plants are placed on greenhouse benches and are cared for in the usual manner, commensurate with conventional greenhouse practices. From four to five weeks after treatment, the seedling plants are examined and rated according to the rating system set forth below. Where more than one test is involved for a given compound, the data are averaged.
as §1

GALIUM APARINE = experiment: Preemergence herbicidal evaluation, GALAP (Galium); parameters: key to GALAP: visual rating scale 0-9 vs control
Text: as §1, §2

ZEA MAYS L. = experiment: Preemergence herbicidal evaluation, ZEAMX (Corn, Field); parameters: key to ZEAMX: visual rating scale 0-9 vs control
Text: as §1, §2

[3] = tested on: ORYZA SATIVA, L. TEBONNET; experiment: Preemergence herbicidal evaluation, ORYSAT (Rice, Tebonnet); parameters: key to ORYSAT: visual rating scale 0-9 vs control
Text: as §1, §2

CHENOPODIUM ALBUM, L. = experiment: Preemergence herbicidal evaluation, CHEAL (Lambsquarters, Common); parameters: key to CHEAL: visual rating scale 0-9 vs control
Text: as §1, §2

[4] = tested on: ABUTILON THEOPHRASTI, MEDIC.; experiment: Preemergence herbicidal evaluation, ABUTH (Velvetleaf); parameters: key to ABUTH: visual rating scale 0-9 vs control
Text: as §1, §2

IPOMOEA SPP. = experiment: Preemergence herbicidal evaluation, IPOSS (Morningglory Spp.); parameters: key to IPOSS: visual rating scale 0-9 vs control
Text: as §1, §2

[5] = tested on: ECHINOCHLOA CRUS-GALLI, (L) BEAU; experiment: Postemergence herbicidal evaluation, ECHCG (Barnyardgrass)
Method: as §3, §1

CASSIA OBTUSIFOLIA, L. [6] = experiment: Preemergence herbicidal evaluation, CASOB (Sicklepod); parameters: key to CASOB: visual rating scale 0-9 vs control
Text: as §1, §2

[7] = tested on: TRITICUM AESTIVUM, CV. APOLLO; experiment: Postemergence herbicidal evaluation, TRZAWO (Wheat, Winter, CV. APOLLO)
Method: as §3, §1

[8] = tested on: TRITICUM AESTIVUM, CV. APOLLO; experiment: Preemergence herbicidal evaluation, TRZAWO (Wheat, Winter, CV. APOLLO); parameters: key to TRZAWO: visual rating scale 0-9 vs control
Text: as §1, §2

[9] = tested on: GLYCINE MAX(L)MERR. CV. WILLIAMS; experiment: Preemergence herbicidal evaluation, GLXMAW (Soybean, Williams); parameters: key to GLXMAW: visual rating scale 0-9 vs control
Text: as §1, §2

[10] = tested on: SETARIA VIRIDIS, (L) BEAU; experiment: Postemergence herbicidal evaluation, SETVI (Foxtail, Green)
Method: as §3, §1

[11] = tested on: SETARIA VIRIDIS, (L) BEAU; experiment: Preemergence herbicidal evaluation, SETVI (Foxtail, Green); parameters: key to SETVI: visual rating scale 0-9 vs control
Text: as §1, §2

[12] = tested on: ORYZA SATIVA, L. TEBONNET; experiment: Postemergence herbicidal evaluation, ORYSAT (Rice, Tebonnet)
Method: as §3, §1

[13] = tested on: ECHINOCHLOA CRUS-GALLI, (L) BEAU; experiment: Preemergence herbicidal evaluation, ECHCG (Barnyardgrass); parameters: key to ECHCG: visual rating scale 0-9 vs control
Text: as §1, §2

CCOC(=O)Cn1c(=O)n(CC(=O)OC(C)(C)C)c(=O)n(-c2ccc(F)c(N3C(=O)C4=C(CCCC4)C3=O)c2)c1=O [Compound 8, 5-[3-(1-Cyclohexene-1,2-dicarboximido)-4-fluorophenyl]dihydro-2,4,6-trioxo-s-tri-azine-1,3(2H,4H)-diacetic acid, 1-tert-butyl, ethyl ester]
1.5: Herbicide rating (0-9) ORYSAT ([12]; 0.125 kg/ha) | Herbicide rating (0-9) ORYSAT ([12]; 0.250 kg/ha) | Herbicide rating (0-9) ORYSAT ([12]; 0.500 kg/ha)
0.0: Herbicide rating (0-9) AMBEL ([1]; 0.125 kg/ha) | Herbicide rating (0-9) AMBEL ([1]; 0.250 kg/ha) | Herbicide rating (0-9) AMBEL ([1]; 0.500 kg/ha) | Herbicide rating (0-9) CASOB (CASSIA OBTUSIFOLIA, L. [2]; 0.125 kg/ha) | Herbicide rating (0-9) CASOB (CASSIA OBTUSIFOLIA, L. [2]; 0.250 kg/ha) | Herbicide rating (0-9) CASOB (CASSIA OBTUSIFOLIA, L. [2]; 0.500 kg/ha) | Herbicide rating (0-9) GALAP (GALIUM APARINE; 0.125 kg/ha) | Herbicide rating (0-9) GALAP (GALIUM APARINE; 0.250 kg/ha) | Herbicide rating (0-9) GALAP (GALIUM APARINE; 0.500 kg/ha) | Herbicide rating (0-9) ZEAMX (ZEA MAYS L.; 0.125 kg/ha) | Herbicide rating (0-9) ZEAMX (ZEA MAYS L.; 0.250 kg/ha) | Herbicide rating (0-9) ZEAMX (ZEA MAYS L.; 0.500 kg/ha) | Herbicide rating (0-9) ORYSAT ([3]; 0.125 kg/ha) | Herbicide rating (0-9) ORYSAT ([3]; 0.250 kg/ha) | Herbicide rating (0-9) ORYSAT ([3]; 0.500 kg/ha) | Herbicide rating (0-9) CHEAL (CHENOPODIUM ALBUM, L.; 0.125 kg/ha) | Herbicide rating (0-9) CHEAL (CHENOPODIUM ALBUM, L.; 0.250 kg/ha) | Herbicide rating (0-9) CHEAL (CHENOPODIUM ALBUM, L.; 0.500 kg/ha) | Herbicide rating (0-9) ABUTH ([4]; 0.125 kg/ha) | Herbicide rating (0-9) ABUTH ([4]; 0.250 kg/ha) | Herbicide rating (0-9) ABUTH ([4]; 0.500 kg/ha) | Herbicide rating (0-9) IPOSS (IPOMOEA SPP.; 0.125 kg/ha) | Herbicide rating (0-9) IPOSS (IPOMOEA SPP.; 0.250 kg/ha) | Herbicide rating (0-9) IPOSS (IPOMOEA SPP.; 0.500 kg/ha) | Herbicide rating (0-9) ECHCG ([5]; 0.125 kg/ha) | Herbicide rating (0-9) ECHCG ([5]; 0.250 kg/ha) | Herbicide rating (0-9) ECHCG ([5]; 0.500 kg/ha) | Herbicide rating (0-9) CASOB (CASSIA OBTUSIFOLIA, L. [6]; 0.125 kg/ha) | Herbicide rating (0-9) CASOB (CASSIA OBTUSIFOLIA, L. [6]; 0.250 kg/ha) | Herbicide rating (0-9) CASOB (CASSIA OBTUSIFOLIA, L. [6]; 0.500 kg/ha) | Herbicide rating (0-9) TRZAWO ([8]; 0.125 kg/ha) | Herbicide rating (0-9) TRZAWO ([8]; 0.250 kg/ha) | Herbicide rating (0-9) TRZAWO ([8]; 0.500 kg/ha) | Herbicide rating (0-9) GLXMAW ([9]; 0.125 kg/ha) | Herbicide rating (0-9) GLXMAW ([9]; 0.250 kg/ha) | Herbicide rating (0-9) GLXMAW ([9]; 0.500 kg/ha) | Herbicide rating (0-9) SETVI ([10]; 0.125 kg/ha) | Herbicide rating (0-9) SETVI ([10]; 0.250 kg/ha) | Herbicide rating (0-9) SETVI ([10]; 0.500 kg/ha) | Herbicide rating (0-9) SETVI ([11]; 0.125 kg/ha) | Herbicide rating (0-9) SETVI ([11]; 0.250 kg/ha) | Herbicide rating (0-9) SETVI ([11]; 0.500 kg/ha) | Herbicide rating (0-9) ECHCG ([13]; 0.125 kg/ha) | Herbicide rating (0-9) ECHCG ([13]; 0.250 kg/ha) | Herbicide rating (0-9) ECHCG ([13]; 0.500 kg/ha)
0.5: Herbicide rating (0-9) TRZAWO ([7]; 0.125 kg/ha) | Herbicide rating (0-9) TRZAWO ([7]; 0.250 kg/ha) | Herbicide rating (0-9) TRZAWO ([7]; 0.500 kg/ha)

CC(C)OC(=O)Cn1c(=O)n(C)c(=O)n(-c2cc(N3C(=O)C4C[S+]([O-])CCN4C3=O)c(F)cc2Cl)c1=O (stereo not drawn) [Compound 14, Isopropyl 3-[2-chloro-4-fluoro-5-(tetra-hydro-1,3,7-trioxo-1H-imidazo[5,1-c][1,4]-thiazin-2(3H)-yl)phenyl]tetrahydro-5-methyl-2,4,6-trioxo-s-triazine-1(2H)-acetate]
4.0: ORYSAT ([3]; Rate 0.500 kg/ha) | ABUTH ([4]; Rate 0.500 kg/ha) | CASOB (CASSIA OBTUSIFOLIA, L. [6]; Rate 0.500 kg/ha)
6.0: CHEAL (CHENOPODIUM ALBUM, L.; Rate 0.250 kg/ha)
0.0: AMBEL ([1]; Rate 0.125 kg/ha) | ZEAMX (ZEA MAYS L.; Rate 0.125 kg/ha) | ZEAMX (ZEA MAYS L.; Rate 0.250 kg/ha) | ORYSAT ([3]; Rate 0.125 kg/ha) | ABUTH ([4]; Rate 0.125 kg/ha) | ABUTH ([4]; Rate 0.250 kg/ha) | IPOSS (IPOMOEA SPP.; Rate 0.125 kg/ha) | Herbicide rating (0-9) ECHCG ([5]; 0.125 kg/ha) | Herbicide rating (0-9) ECHCG ([5]; 0.250 kg/ha) | Herbicide rating (0-9) ECHCG ([5]; 0.500 kg/ha) | TRZAWO ([8]; Rate 0.125 kg/ha) | GLXMAW ([9]; Rate 0.125 kg/ha) | GLXMAW ([9]; Rate 0.250 kg/ha) | GLXMAW ([9]; Rate 0.500 kg/ha) | SETVI ([11]; Rate 0.125 kg/ha) | SETVI ([11]; Rate 0.250 kg/ha) | ECHCG ([13]; Rate 0.125 kg/ha) | ECHCG ([13]; Rate 0.250 kg/ha) | ECHCG ([13]; Rate 0.500 kg/ha)
9.0: GALAP (GALIUM APARINE; Rate 0.500 kg/ha) | CHEAL (CHENOPODIUM ALBUM, L.; Rate 0.500 kg/ha)
2.0: AMBEL ([1]; Rate 0.250 kg/ha) | ORYSAT ([3]; Rate 0.250 kg/ha) | CASOB (CASSIA OBTUSIFOLIA, L. [6]; Rate 0.125 kg/ha) | CASOB (CASSIA OBTUSIFOLIA, L. [6]; Rate 0.250 kg/ha) | Herbicide rating (0-9) TRZAWO ([7]; 0.125 kg/ha) | Herbicide rating (0-9) TRZAWO ([7]; 0.250 kg/ha) | Herbicide rating (0-9) TRZAWO ([7]; 0.500 kg/ha) | TRZAWO ([8]; Rate 0.500 kg/ha)
1.0: ZEAMX (ZEA MAYS L.; Rate 0.500 kg/ha) | IPOSS (IPOMOEA SPP.; Rate 0.250 kg/ha) | TRZAWO ([8]; Rate 0.250 kg/ha) | Herbicide rating (0-9) SETVI ([10]; 0.125 kg/ha) | Herbicide rating (0-9) SETVI ([10]; 0.250 kg/ha) | Herbicide rating (0-9) SETVI ([10]; 0.500 kg/ha) | SETVI ([11]; Rate 0.500 kg/ha)
7.0: GALAP (GALIUM APARINE; Rate 0.125 kg/ha) | GALAP (GALIUM APARINE; Rate 0.250 kg/ha) | CHEAL (CHENOPODIUM ALBUM, L.; Rate 0.125 kg/ha)
3.0: AMBEL ([1]; Rate 0.500 kg/ha) | IPOSS (IPOMOEA SPP.; Rate 0.500 kg/ha)
5.0: Herbicide rating (0-9) CASOB (CASSIA OBTUSIFOLIA, L. [2]; 0.125 kg/ha) | Herbicide rating (0-9) CASOB (CASSIA OBTUSIFOLIA, L. [2]; 0.250 kg/ha) | Herbicide rating (0-9) CASOB (CASSIA OBTUSIFOLIA, L. [2]; 0.500 kg/ha)
